The results in this text go back to patent EP1977646A1, “Insecticidal hydroxyethyl thlourea derivatives” (Bayer CropScience AG, priority 2007, dated 2008).

Like-named read-outs stand apart in the source and are kept apart here.

In data set [1] the test system is Myzus persicae. Kind of data set: Myzus persicae - test (spray application). Type of data set: in vivo. The note with it: application rate of 500 g/ha, Chinese cabbage leaf-disks sprayed, all instars. The method, then:
Myzus persicae - test; (spray application)
(§1) To produce a suitable preparation of active compound, 1 part by weight of active compound is mixed with the stated amount of solvent and emulsifier, and the concentrate is diluted with emulsifier-containing water to the desired concentration.
Chinese cabbage (Brassica pekinesis) leaf-disks infected with all instars of the green peach aphid (Myzus persicae), are sprayed with a preparation of the active ingredient at the desired concentration.
After the specified period of time, mortality in % is determined. 100% means that all aphids have been killed; 0% means that none of the aphids have been killed.

Data set [2] in a line: logP (HCOOH) by HPLC, EEC-Directive 79/831, Annex V.A8. Type of data set: physicochemical. The following applies: gradient method; for chromatographic logP: hplc acetonitrile/0.1% hcooh. On the procedure: A stirred mixture of 600 mg (3,4 mmol) 4-fluoro-1-aminoindane and 778 mg (4.37 mmol) 1,1-thiocarbonyldiimidazole in dichloromethane was kept at ambient temperature for 1,5 h. After addition of 230 mg (3.74 mmol) 2-aminoethanol dissolved in 3 mL dichloromethane the resulting mixture was stirred for further 72 h at ambient temperature. Then, the mixture was diluted with ethyl acetate and washed with 1 N HCl and saturated NaHCO3 solution. After phase separation, the organic phase was dried with solid Na2SO4, filtered and evaporated under reduced pressure. The residue was purified by chromatography (silica gel, cyclohexane/ethyl acetate = vol. 5:1) to afford 350 mg 1-(4-fluoro-2,3-dihydro-1H-inden-1-yl)-3-(2-hydroxyethyl)thiourea. The NMR spectrum was consistent with the proposed structure. logP^(1)) = 1,74 [formula] ^1) logP (HCOOH) determined according to EEC-Directive 79/831, Annex V.A8 using HPLC (gradient method, acetonitrile/0.1% HCOOH)
logP (HCOOH) determined according to EEC-Directive 79/831, Annex V.A8 using HPLC (gradient method, acetonitrile/0.1% HCOOH)

For data set [3], the system named is Myzus persicae. Kind of data set: Myzus-Test; oral (spray application). It is filed as in vivo. On the procedure: Myzus-Test; oral (spray application)
To produce a suitable preparation of active compound, 1 part by weight of active compound ist mixed with the stated amount of solvent and emulsifier, and the concentrate is diluted with emulsifier-containing water to the desired concentration.
Containers are infested with a mixed population of the green peach aphid (Myzus persicae), the aphids suck on a preparation of the active compound at the desired concentration.
After the specified period of time, mortality in % is determined. 100 % means that all aphids have been killed; 0 % means that none of the aphids have been killed.

Data set [4] relates to Aphis gossypii. Kind of data set: Aphis gossypii - test (leaf dip). It is filed as in vivo. The following applies: foliar, application rate of 20 ppm, cotton leaves dipped. The method, then: Aphis gossypii - test [table] To produce a suitable preparation of active compound, 1 part by weight of active compound is mixed with the stated amount of solvent and emulsifier, and the concentrate is diluted with emulsifier-containing water to the desired concentration. Cotton leaves (Gossypium hirsutum) which are heavily infested by the cotton aphid (Aphis gossypii) are treated by being dipped into the preparation of the active compound of the desired concentration. After the specified period of time, the mortality in % is determined. 100 % means that all the aphids have been killed; 0 % means that none of the aphids have been killed.

For data set [5], the system named is Myzus persicae. Kind of data set: Myzus persicae - test (drench). Type of data set: in vivo. The note with it: soil, application rate of 20 ppm, cabbage plants drenched. The method, then:
as §1
Cabbage plants (Brassica oleracea) which are heavily infested by the green peach aphid (Myzus persicae) are treated by being drenched with the preparation of the active compound of the desired concentration.
After the specified period of time, mortality in % is determined. 100 % means that all the aphids have been killed; 0 % means that none of the aphids have been killed.

Data set [6] deals with Tetranychus urticae. Kind of data set: Tetranychus urticae - test; OP-resistant (spray application). It is filed as in vivo. The note with it: in Phaseolus vulgaris, read-out: activity (mortality in %). On the procedure:
Tetranychus urticae - test; OP-resistant (spray application)
as §1
French bean (Phaseolus vulgaris) which are heavily infested with all stages of the two spotted spidermite (Tetranychus urticae), are sprayed with a preparation of the active ingredient at the desired concentration.
After the specified period of time, mortality in % is determined. 100% means that all spider mites have been killed and 0% means that none of the spider mites have been killed.

[7] abbreviates: application rate of 100 ppm, aphids suck on preparation, mixed population.

As for `COCCNC(=S)NC1CCc2ccccc21` (stereo not shown) [1-4, 1-(2,3-dihydro-1H-inden-1-yl)-3-(2-methoxyethyl)thiourea], the mortality at 500 g/ha in data set [1] is ≥ 80%. The chromatographic logP in data set [2] came out at 2.07. For the same compound, in data set [3] (setting [7]), the mortality at 100 ppm was ≥ 80%.

In data set [2], `CC(CO)NC(=S)N[C@H]1CCc2ccccc21` (stereo partly shown) [1-21] yielded a chromatographic logP of 1.78.

With `OCCNC(=S)NC1CCOc2ccccc21` (stereo not shown) [3-1], the mortality at 500 g/ha in data set [1] was ≥ 80%. In data set [2], the chromatographic logP was determined as 1.42.

As to `COCCNC(=S)NC1CCc2c(F)cccc21` (stereo not shown) [1-17], the mortality at 500 g/ha in data set [1] was ≥ 80%. The compound also came in with a chromatographic logP in data set [2] of 2.21. The mortality at 100 ppm in data set [3] is ≥ 80%.

On to `OCCN(CCO)C(=S)N[C@H]1CCc2ccccc21` [1-105], for which, in data set [2], the chromatographic logP came to 1.64.

As for `OCCNC(=S)N[C@H]1CCCc2ccccc21` [4-2], the mortality at 500 g/ha in data set [1] was ≥ 80%. This compound yielded a chromatographic logP in data set [2] of 1.79. Besides, the mortality at 20 ppm in data set [4] is ≥ 80%.

As for `OCCNC(=S)N[C@H]1CCc2ccccc21` [1-2, 1-[(1S)-2,3-dihydro-1H-inden-1-yl]-3-(2-hydroxyethyl)thiourea], the mortality at 500 g/ha in data set [1] is ≥ 80%. The mortality at 20 ppm in data set [5] and in data set [4] was ≥ 80% in each case. The mortality at 100 g/ha in data set [6] was ≥ 80%. The “logP (HCOOH)” value in data set [2] (acetonitrile/0.1% HCOOH) was 1,56. The same compound registered a chromatographic logP in data set [2] of 1.65. In data set [3] (setting [7]), the mortality at 100 ppm was ≥ 80%.

Regarding `OCCNC(=S)N[C@@H]1CCc2ccccc21` [1-3], the chromatographic logP in data set [2] stood at 1.65.

For `OCCNC(=S)NC1CCc2c(F)cccc21` (stereo not shown) [1-14, 1-(4-fluoro-2,3-dihydro-1H-inden-1-yl)-3-(2-hydroxyethyl)thiourea], in data set [1], the mortality at 500 g/ha was ≥ 80%. Also, the chromatographic logP in data set [2] was 1.74. In addition, the mortality at 20 ppm in data set [4] is ≥ 80%.

On to `OCCNC(=S)NC1CCc2c(F)ccc(F)c21` (stereo not shown) [1-83], for which the chromatographic logP in data set [2] amounted to 1.68.
